The record followed here is patent US20260248926A1, “BIFUNCTIONAL COMPOUND AND PHARMACEUTICAL COMPOSITION COMPRISING THE BIFUNCTIONAL COMPOUND, AND METHOD FOR TREATING ANDROGEN RECEPTOR RELATED DISEASE BY USING THE SAME” (ANHORN MEDICINES CO., LTD., priority 2022, published 2026).

Read-outs that look alike come from different tables or passages of the source. Bounds are passed on as bounds.

This test has as its target T1, androgen receptor (Homo sapiens, UniProt P10275, T878A).
T1 construct: Several compounds were selected and serial diluted (10×) with RPMI medium for treating LNCaP.FGC cells; host or cells: LNCaP.FGC
The test can be described thus: Androgen receptor degradation assay using Western blot analysis in LNCaP.FGC cells. The test is classed as cell-based. Here is the method:
The internal loading control GAPDH was detected using a mouse monoclonal antibody (1:5000) (GTX627408, GeneTex International Corp., HsinChu City, Taiwan R.O.C.) and a goat anti-mouse HRP-conjugated secondary antibody (1:5000 dilution) (C04001, Croyez Bioscience Co., Ltd., Taipei City, Taiwan R.O.C.).
Several compounds were selected and serial diluted (10×) with RPMI medium for treating LNCaP.FGC cells. A calibration curve was determined by the serial diluted samples for each compound, and the concentration needed for 50% AR degradation (AR DC50) for each compound was calculated.
(Immunoblotting shows a protein as a band on a membrane.)

[1] abbreviates: read-out: AR DC50, concentration needed for 50% AR degradation, 24 hr treatment.
Setting [2] is: concentration needed for 50% AR degradation, 24 hr treatment, read-out: AR DC50.

T1 sequence (P10275 whole entry T878A): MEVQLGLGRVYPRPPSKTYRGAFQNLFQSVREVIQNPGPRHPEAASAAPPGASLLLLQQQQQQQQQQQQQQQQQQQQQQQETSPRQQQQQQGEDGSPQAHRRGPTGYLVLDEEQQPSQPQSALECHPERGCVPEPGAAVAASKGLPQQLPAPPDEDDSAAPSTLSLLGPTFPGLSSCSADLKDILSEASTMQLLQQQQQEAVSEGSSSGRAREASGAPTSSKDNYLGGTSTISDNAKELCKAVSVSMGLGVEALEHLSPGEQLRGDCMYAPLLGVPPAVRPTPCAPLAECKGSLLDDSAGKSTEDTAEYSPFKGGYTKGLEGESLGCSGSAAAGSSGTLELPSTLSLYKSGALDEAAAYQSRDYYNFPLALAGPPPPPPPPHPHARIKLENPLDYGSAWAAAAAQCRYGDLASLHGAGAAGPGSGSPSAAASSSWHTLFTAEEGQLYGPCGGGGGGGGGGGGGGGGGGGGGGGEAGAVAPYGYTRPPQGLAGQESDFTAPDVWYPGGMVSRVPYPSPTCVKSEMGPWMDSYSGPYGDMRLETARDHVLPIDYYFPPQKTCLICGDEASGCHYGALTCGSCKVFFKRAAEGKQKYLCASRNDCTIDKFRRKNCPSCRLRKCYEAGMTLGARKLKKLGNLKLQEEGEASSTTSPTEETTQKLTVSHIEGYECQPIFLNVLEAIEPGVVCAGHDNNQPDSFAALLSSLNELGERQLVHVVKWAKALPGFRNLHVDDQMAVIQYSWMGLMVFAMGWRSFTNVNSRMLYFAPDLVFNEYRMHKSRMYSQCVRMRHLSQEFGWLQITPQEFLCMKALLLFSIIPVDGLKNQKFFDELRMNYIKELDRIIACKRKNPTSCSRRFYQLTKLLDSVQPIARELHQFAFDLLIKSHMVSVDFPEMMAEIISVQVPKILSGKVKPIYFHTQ
T1 sequence (Q96SW2 whole entry partner): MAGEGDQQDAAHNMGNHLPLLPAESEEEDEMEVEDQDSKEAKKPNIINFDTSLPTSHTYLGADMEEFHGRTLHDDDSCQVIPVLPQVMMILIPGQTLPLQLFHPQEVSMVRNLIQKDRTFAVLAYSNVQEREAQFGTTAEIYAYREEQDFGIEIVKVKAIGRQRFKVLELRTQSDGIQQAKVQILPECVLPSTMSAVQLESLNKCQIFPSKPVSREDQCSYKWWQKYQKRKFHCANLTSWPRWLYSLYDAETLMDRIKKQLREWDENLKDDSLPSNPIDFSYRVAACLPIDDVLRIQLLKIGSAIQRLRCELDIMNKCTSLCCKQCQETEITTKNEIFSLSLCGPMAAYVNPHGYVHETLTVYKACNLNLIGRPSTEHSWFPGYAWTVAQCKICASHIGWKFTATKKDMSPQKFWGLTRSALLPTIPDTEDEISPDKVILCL

As for `CCn1c2c(c3ccc(N4CCN(CC5CCN(c6ccc(C(=O)N[C@H]7C(C)(C)[C@@H](Oc8ccc(C#N)c(Cl)c8)C7(C)C)nn6)CC5)CC4)cc31)C(=O)N(C1CCC(=O)NC1=O)C2=O` (stereo partly shown) [Compound 9], the DC50 under setting [1] lay within 25 to 100 nM. Take `Cn1c2c(c3ccc(C4CCN(CC5CCN(c6ccc(C(=O)N[C@H]7CC[C@H](Oc8ccc(C#N)c(Cl)c8)CC7)nn6)C5)CC4)cc31)C(=O)N(C1CCC(=O)NC1=O)C2=O` (stereo partly shown) [Compound 34]: under setting [2], the DC50 is 10 to 25 nM. Take `CCn1c2c(c3ccc(N4CCN(CC5CCN(c6ccc(C(=O)N[C@H]7CC[C@@H](Oc8ccc(C#N)c(Cl)c8)CC7)cn6)CC5)CC4)cc31)C(=O)N(C1CCC(=O)NC1=O)C2=O` (stereo partly shown) [Compound 5]: the DC50 under setting [1] was 25 to 100 nM.

For `CCn1c2c(c3ccc(C4CCN(CC5CCN(c6ccc(C(=O)N[C@H]7CC[C@H](Oc8ccc(C#N)c(Cl)c8)CC7)nn6)CC5)CC4)cc31)C(=O)N(C1CCC(=O)NC1=O)C2=O` (stereo partly shown) [Compound 11], under setting [1], the DC50 was under 10 nM. With `Cn1c2c(c3ccc(N4CCN(CC5CN(c6ccc(C(=O)N[C@H]7CC[C@H](Oc8ccc(C#N)c(Cl)c8)CC7)nn6)C5)CC4)cc31)C(=O)N(C1CCC(=O)NC1=O)C2=O` (stereo partly shown) [Compound 1], under setting [2], the DC50 is under 10 nM.

`Cn1c2c(c3ccc(C4CCN(CC5CN(c6ccc(C(=O)N[C@H]7CC[C@H](Oc8ccc(C#N)c(Cl)c8)CC7)nn6)C5)CC4)cc31)C(=O)N(C1CCC(=O)NC1=O)C2=O` (stereo partly shown) [Compound 2]: under setting [2], the DC50 is under 10 nM.

In the case of `CCn1c2c(c3ccc(N4CCN(CC5CCN(c6ccc(C(=O)N[C@H]7C(C)(C)[C@H](Oc8ccc(C#N)c(Cl)c8)C7(C)C)cn6)CC5)CC4)cc31)C(=O)N(C1CCC(=O)NC1=O)C2=O` (stereo partly shown) [Compound 6], the DC50 under setting [1] lay in the range of 25 to 100 nM. On the same count and under the same terms, the result for `CCn1c2c(c3ccc(N4CCN(CC5CCN(c6ccc(C(=O)N[C@H]7CC[C@H](Oc8ccc(C#N)c(Cl)c8)CC7)nn6)CC5)CC4)cc31)C(=O)N([C@H]1CCC(=O)NC1=O)C2=O` [Compound 36] reads 10 to 25 nM; that for `CCn1c2c(c3ccc(N4CCN(CC5CCN(c6ncc(C(=O)N[C@H]7CC[C@@H](Oc8ccc(C#N)c(Cl)c8)CC7)cn6)CC5)CC4)cc31)C(=O)N(C1CCC(=O)NC1=O)C2=O` (stereo partly shown) [Compound 26], over 100 nM. With `Cn1c2c(c3cc(N4CCN(CC5CCN(c6ccc(C(=O)N[C@H]7CC[C@H](Oc8ccc(C#N)c(Cl)c8)CC7)nn6)CC5)CC4)ccc31)C(=O)N(C1CCC(=O)NC1=O)C2=O` (stereo partly shown) [Compound 41], the DC50 under setting [2] was over 100 nM. Consider `Cn1c2c(c3ccc(N4CCN(CC5CCN(c6ccc(C(=O)N[C@H]7CC[C@H](Oc8ccc(C#N)c(Cl)c8)CC7)nn6)CC5)CC4)cc31)C(=O)N(C1CCC(=O)NC1=O)C2=O` (stereo partly shown) [Compound 21], for which the DC50 under setting [2] was under 10 nM. The same measure, in the same setting: then `Cn1c2c(c3ccc(N4CCN(CC5CCN(c6ccc(C(=O)N[C@H]7C(C)(C)[C@H](Oc8ccc(C#N)c(Cl)c8)C7(C)C)cn6)CC5)CC4)cc31)C(=O)N(C1CCC(=O)NC1=O)C2=O` (stereo partly shown) [Compound 27], with 10 to 25 nM; and `Cn1c2c(c3ccc(N4CCN(CC5CCN(c6ncc(C(=O)N[C@H]7CC[C@H](Oc8ccc(C#N)c(Cl)c8)CC7)cn6)CC5)CC4)cc31)C(=O)N(C1CCC(=O)NC1=O)C2=O` (stereo partly shown) [Compound 35], with 10 to 25 nM; and `Cn1c2c(c3ccc(C4CCN(CC5CCN(c6ccc(C(=O)N[C@H]7CC[C@@H](Oc8ccc(C#N)c(Cl)c8)CC7)nn6)CC5)CC4)cc31)C(=O)N(C1CCC(=O)NC1=O)C2=O` (stereo partly shown) [Compound 30], with under 10 nM.

Take `CCn1c2c(c3ccc(C4=CCN(CC5CCN(c6ccc(C(=O)N[C@H]7CC[C@H](Oc8ccc(C#N)c(Cl)c8)CC7)nn6)CC5)CC4)cc31)C(=O)N(C1CCC(=O)NC1=O)C2=O` (stereo partly shown) [Compound 48]: under setting [1], the DC50 lay in the range of 10 to 25 nM. On the same count and under the same terms, then `CCn1c2c(c3ccc(N4CCN(CC5CCN(c6ccc(C(=O)N[C@H]7C(C)(C)[C@H](Oc8ccc(C#N)c(Cl)c8)C7(C)C)nn6)CC5)CC4)cc31)C(=O)N(C1CCC(=O)NC1=O)C2=O` (stereo partly shown) [Compound 8], with 25 to 100 nM. Same read-out and setting: then `CCn1c2c(c3ccc(N4CCC5(CC4)CN(CC4CCN(c6ccc(C(=O)N[C@H]7CC[C@H](Oc8ccc(C#N)c(Cl)c8)CC7)nn6)CC4)C5)cc31)C(=O)N(C1CCC(=O)NC1=O)C2=O` (stereo partly shown) [Compound 51], with under 10 nM.

Regarding `CCn1c2c(c3ccc(N4CCN(CC5CN(c6ccc(C(=O)N[C@H]7CC[C@H](Oc8ccc(C#N)c(Cl)c8)CC7)nn6)C5)CC4)cc31)C(=O)N(C1CCC(=O)NC1=O)C2=O` (stereo partly shown) [Compound 3], under setting [1], the DC50 is under 10 nM. Turning to `Cn1c2c(c3cc(N4CCN(CC5CN(c6ccc(C(=O)N[C@H]7CC[C@H](Oc8ccc(C#N)c(Cl)c8)CC7)nn6)C5)CC4)ccc31)C(=O)N(C1CCC(=O)NC1=O)C2=O` (stereo partly shown) [Compound 47], under setting [2], the DC50 lay in the range of 25 to 100 nM. In the case of `CCn1c2c(c3ccc(N4CCN(CC5CCN(c6ccc(C(=O)N[C@H]7CC[C@H](Oc8ccc(C#N)c(Cl)c8)CC7)nn6)C5)CC4)cc31)C(=O)N(C1CCC(=O)NC1=O)C2=O` (stereo partly shown) [Compound 17], the DC50 under setting [1] lay within 10 to 25 nM.

For the molecule `CCn1c2c(c3ccc(C4CCN(CC5CCN(c6ccc(C(=O)N[C@H]7CC[C@@H](Oc8ccc(C#N)c(Cl)c8)CC7)nn6)CC5)CC4)cc31)C(=O)N(C1CCC(=O)NC1=O)C2=O` (stereo partly shown) [Compound 12], the DC50 under setting [1] fell in the range of 10 to 25 nM. Regarding `CCn1c2c(c3ccc(N4CCN(CC5CCN(c6ccc(C(=O)N[C@H]7CC[C@@H](Oc8ccc(C#N)c(Cl)c8)CC7)nn6)CC5)CC4)cc31)C(=O)N([C@H]1CCC(=O)NC1=O)C2=O` [Compound 39], the DC50 under setting [1] lay within 10 to 25 nM. As to `CCn1c2c(c3ccc(N4CCN(CC5CCN(c6ncc(C(=O)N[C@H]7CC[C@H](Oc8ccc(C#N)c(Cl)c8)CC7)cn6)CC5)CC4)cc31)C(=O)N(C1CCC(=O)NC1=O)C2=O` (stereo partly shown) [Compound 25], the DC50 under setting [1] lay in the range of 10 to 25 nM. With `CCn1c2c(c3ccc(C4CCN(CC5CCN(c6ccc(C(=O)N[C@H]7C(C)(C)[C@H](Oc8ccc(C#N)c(Cl)c8)C7(C)C)cc6)CC5)CC4)cc31)C(=O)N(C1CCC(=O)NC1=O)C2=O` (stereo partly shown) [Compound 24], the DC50 under setting [1] was 25 to 100 nM. Same read-out and setting: the result for `CCn1c2c(c3ccc(N4CCC(CN5CCC(c6ccc(C(=O)N[C@H]7CC[C@H](Oc8ccc(C#N)c(Cl)c8)CC7)nn6)CC5)CC4)cc31)C(=O)N(C1CCC(=O)NC1=O)C2=O` (stereo partly shown) [Compound 40] reads 10 to 25 nM. As for `Cn1c2c(c3ccc(C4CCN(CC5CCN(c6ccc(C(=O)N[C@H]7CC[C@H](Oc8ccc(C#N)c(Cl)c8)CC7)nn6)CC5)CC4)cc31)C(=O)N(C1CCC(=O)NC1=O)C2=O` (stereo partly shown) [Compound 29], under setting [2], the DC50 lay in the range of 10 to 25 nM. Regarding `CCn1c2c(c3ccc(N4CCN(CC5CCN(c6ccc(C(=O)N[C@H]7C(C)(C)[C@H](Oc8ccc(C#N)c(Cl)c8)C7(C)C)cc6)CC5)CC4)cc31)C(=O)N(C1CCC(=O)NC1=O)C2=O` (stereo partly shown) [Compound 15], under setting [1], the DC50 fell in the range of 25 to 100 nM. `CCn1c2c(c3ccc(N4CCN(CC5CCN(c6ccc(C(=O)N[C@H]7CC[C@H](Oc8ccc(C#N)c(Cl)c8)CC7)nn6)CC5)CC4)cc31)C(=O)N(C1CCC(=O)NC1=O)C2=O` (stereo partly shown) [Compound 23]: the DC50 under setting [1] lay in the range of 10 to 25 nM. For `Cn1c2c(c3ccc(N4CCN(CC5CCN(c6ccc(C(=O)N[C@H]7CC[C@@H](Oc8ccc(C#N)c(Cl)c8)CC7)nn6)CC5)CC4)cc31)C(=O)N(C1CCC(=O)NC1=O)C2=O` (stereo partly shown) [Compound 22], the DC50 under setting [2] was 10 to 25 nM. For `CCn1c2c(c3ccc(N4CCN(CC5CCN(c6ccc(C(=O)N[C@H]7CC[C@@H](Oc8ccc(C#N)c(Cl)c8)CC7)nn6)CC5)CC4)cc31)C(=O)N(C1CCC(=O)NC1=O)C2=O` (stereo partly shown) [Compound 33], the DC50 under setting [1] was under 10 nM. Still for that read-out and setting: then `CCn1c2c(c3ccc(N4CCN(CC5CCN(c6ccc(C(=O)N[C@H]7C(C)(C)[C@@H](Oc8ccc(C#N)c(Cl)c8)C7(C)C)cn6)CC5)CC4)cc31)C(=O)N(C1CCC(=O)NC1=O)C2=O` (stereo partly shown) [Compound 7], with 25 to 100 nM; and `CCn1c2c(c3ccc(C4CCN(CC5CCN(c6ccc(C(=O)N[C@H]7CC[C@H](Oc8ccc(C#N)c(Cl)c8)CC7)nn6)C5)CC4)cc31)C(=O)N(C1CCC(=O)NC1=O)C2=O` (stereo partly shown) [Compound 18], with 10 to 25 nM; and `CCn1c2c(c3ccc(N4CCN(CC5CCN(c6ccc(C(=O)N[C@H]7C(C)(C)[C@@H](Oc8ccc(C#N)c(Cl)c8)C7(C)C)cc6)CC5)CC4)cc31)C(=O)N(C1CCC(=O)NC1=O)C2=O` (stereo partly shown) [Compound 16], with over 100 nM. For `CCn1c2c(c3ccc(N4CCN(CC5CCN(c6ccc(C(=O)N[C@H]7CC[C@H](Oc8ccc(C#N)c(Cl)c8)CC7)cn6)CC5)CC4)cc31)C(=O)N(C1CCC(=O)NC1=O)C2=O` (stereo partly shown) [Compound 4], the DC50 under setting [1] was in the range of 25 to 100 nM. For the molecule `Cn1c2c(c3cc(N4CCN(CC5CCN(c6ccc(C(=O)N[C@H]7CC[C@@H](Oc8ccc(C#N)c(Cl)c8)CC7)nn6)CC5)CC4)ccc31)C(=O)N(C1CCC(=O)NC1=O)C2=O` (stereo partly shown) [Compound 42], the DC50 under setting [2] fell in the range of 25 to 100 nM. `Cn1c2c(c3ccc(N4CCN(CC5CCN(c6ccc(C(=O)N[C@H]7C(C)(C)[C@@H](Oc8ccc(C#N)c(Cl)c8)C7(C)C)cn6)CC5)CC4)cc31)C(=O)N(C1CCC(=O)NC1=O)C2=O` (stereo partly shown) [Compound 28]: under setting [2], the DC50 is 25 to 100 nM. In the case of `CCn1c2c(c3ccc(C4CCN(CC5CN(c6ccc(C(=O)N[C@H]7CC[C@H](Oc8ccc(C#N)c(Cl)c8)CC7)nn6)C5)CC4)cc31)C(=O)N(C1CCC(=O)NC1=O)C2=O` (stereo partly shown) [Compound 10], the DC50 under setting [1] is under 10 nM.
